Read-outs that look alike come from different tables or passages of the source.
Test system: HCV pseudoparticles, genotype 1a HCV E1 and E2 envelope (H77C isolate)
Assay: HCV pseudoparticle infection assay (luciferase reporter, Huh7 cells)
Assay type: cell-based
[1] = class symbol, HCV pseudoparticles genotype 1a (H77C), luciferase 2 days after infection, read-out: EC50 (nM) 1a (H77C)
[2] = numeric value, HCV pseudoparticles genotype 1a (H77C), luciferase 2 days after infection, read-out: EC50 (nM) 1a (H77C)
[3] = Hepatitis C virus, Huh-7, 48 h, read-out: EC50 (nM) 1a (H77C), class symbol, HCV pseudoparticles genotype 1a (H77C), luciferase 2 days after infection
[4] = Hepatitis C virus, Huh-7, 48 h, read-out: EC50 (nM) 1a (H77C), numeric value, HCV pseudoparticles genotype 1a (H77C), luciferase 2 days after infection

| SMILES | EC50 [3] [nM] | other results |
| --- | --- | --- |
| O=C1NCCNCCNc2nc(nc(OCC(F)(F)F)n2)Nc2ccc1cc2 [Example 0001] |  | EC50 [1]: 1000 to 5000 nM; EC50 [2]: 4200 nM |
| O=C1NCCCCCCCCNc2nc(nc(OCC(F)(F)F)n2)Nc2ccc1cc2 [Example 0002] |  | EC50 [1]: 0.1 to 100 nM |
| O=C1NCCCCCCCCCCNc2nc(nc(OCC(F)(F)F)n2)Nc2ccc1cc2 [Example 0003] |  | EC50 [1]: 100 to 1000 nM; EC50 [2]: 101 nM |
| O=C1NCCCOCCCCOCCCNc2nc(nc(OCC(F)(F)F)n2)Nc2ccc1cc2 [Example 0004] |  | EC50 [1]: 0.1 to 100 nM; EC50 [2]: 48.4 nM |
| O=C1NCCCCNC(=O)C2(CC2)Nc2nc(nc(OCC(F)(F)F)n2)Nc2ccc1cc2 [Example 0006] |  | EC50 [1]: 1000 to 5000 nM |
| O=C1NC2CNCC2C(=O)NCCCCCCOc2ccc(cc2)CNc2nc(nc(OCC(F)(F)F)n2)Nc2ccc1cc2 (stereo not drawn) [Example 0007] |  | EC50 [1]: 0.1 to 100 nM; EC50 [2]: 8.31 nM |
| CCN(CC)CCN1CCNC(=O)c2ccc(cc2)Nc2nc(nc(OCC(F)(F)F)n2)Nc2ccc(cc2)C1=O [Example 0021] | 100 to 1000 |  |
| CN1CCCNC(=O)c2ccc(cc2)Nc2nc(nc(OCC(F)(F)F)n2)Nc2ccc(cc2)C(=O)NCCC1 [Example 0022] | 100 to 1000 |  |
| CN(C)CCCN1CCCNC(=O)c2ccc(cc2)Nc2nc(nc(OCC(F)(F)F)n2)Nc2ccc(cc2)C1=O [Example 0023] | 100 to 1000 |  |
| CN1CCCN(C)CCCN(C)C(=O)c2ccc(cc2)Nc2nc(nc(OCC(F)(F)F)n2)Nc2ccc(cc2)C(=O)N(C)CCC1 [Example 0024] | 1000 to 5000 | EC50 [4]: 16300 nM |
| O=C1NCCCCCCNC(=O)c2ccc(cc2)Nc2nc(nc(OCC(F)(F)F)n2)NCc2ccc1cc2 [Example 0032] | 100 to 1000 |  |
| O=C1NCCCCNC(=O)c2ccc(cc2)Nc2nc(nc(OCC(F)(F)F)n2)NCc2ccc1cc2 [Example 0033] | 100 to 1000 |  |
| CCN(CC)CCN1CCNC(=O)c2ccc(cc2)CNc2nc(nc(OCC(F)(F)F)n2)Nc2ccc(cc2)C1=O [Example 0035] | 1000 to 5000 |  |
| O=C1NCCCN2CCN(CCCNC(=O)c3ccc(cc3)Nc3nc(nc(OCC(F)(F)F)n3)NCc3ccc1cc3)CC2 [Example 0039] | 100 to 1000 |  |
| CN1CCCN(C)CCCN(C)C(=O)c2ccc(cc2)Nc2nc(nc(OCC(F)(F)F)n2)NCc2ccc(cc2)C(=O)N(C)CCC1 [Example 0041] | 1000 to 5000 | EC50 [4]: 21600 nM |
| CN1CCNC(=O)c2ccc(cc2)CNc2nc(nc(OCC(F)(F)F)n2)Nc2ccc(cc2)C(=O)NCC1 [Example 0042] | 100 to 1000 |  |
| O=C1NCc2ccc(cc2)CNc2nc(nc(OCC(F)(F)F)n2)Nc2ccc(cc2)CNC(=O)Nc2cccc(c2)N1 [Example 0051] | 100 to 1000 |  |
| O=C1NCc2ccc(cc2)Nc2nc(nc(OCC(F)(F)F)n2)NCc2cccc(c2)CNC(=O)Nc2cccc(c2)N1 [Example 0052] | 100 to 1000 |  |
| O=C1NCCCCNC(=O)NCc2ccc(cc2)Nc2nc(nc(OCC(F)(F)F)n2)NCc2ccc(cc2)CN1 [Example 0053] | 100 to 1000 |  |
| O=C1NCc2ccc(cc2)Nc2nc(nc(OCC(F)(F)F)n2)NCc2cccc(c2)CNC(=O)NC2CCC(CC2)CC2CCC(CC2)N1 [Example 0054] | 1000 to 5000 | EC50 [4]: 5210 nM |
| O=C1NCCCCCCNC(=O)NCc2ccc(cc2)Nc2nc(nc(OCC(F)(F)F)n2)NCc2ccc(cc2)CN1 [Example 0055] | 100 to 1000 |  |

| SMILES | EC50 [3] [nM] | other results |
| --- | --- | --- |
| O=C1NCCCCCCNC(=O)NCc2cccc(c2)CNc2nc(nc(OCC(F)(F)F)n2)Nc2ccc(cc2)CN1 [Example 0056] | 100 to 1000 |  |
| CC1(C)NC(=O)NCc2ccc(cc2)CNc2nc(nc(OCC(F)(F)F)n2)Nc2ccc(cc2)CNC(=O)NC(C)(C)c2cccc1c2 [Example 0057] | 100 to 1000 |  |
| CC1(C)NC(=O)NCc2ccc(cc2)Nc2nc(nc(OCC(F)(F)F)n2)NCc2cccc(c2)CNC(=O)NC(C)(C)c2cccc1c2 [Example 0058] | 100 to 1000 |  |
| O=C1NCc2ccc(cc2)Nc2nc(nc(OCC(F)(F)F)n2)NCc2cccc(c2)CNC(=O)c2ccccc21 [Example 0059] | 0.1 to 100 |  |
| O=C1NCc2ccc(cc2)Nc2nc(nc(OCC(F)(F)F)n2)NCc2cccc(c2)CNC(=O)c2ccc1cc2 [Example 0060] | 100 to 1000 |  |
| O=C1CCCC(=O)NCc2ccc(cc2)Nc2nc(nc(OCC(F)(F)F)n2)NCc2ccc(cc2)CN1 [Example 0061] | 100 to 1000 |  |
| O=C1CCCC(=O)NCc2cccc(c2)CNc2nc(nc(OCC(F)(F)F)n2)Nc2ccc(cc2)CN1 [Example 0062] | 100 to 1000 |  |
| O=C1CCCCCCC(=O)NCc2ccc(cc2)Nc2nc(nc(OCC(F)(F)F)n2)NCc2ccc(cc2)CN1 [Example 0063] | 100 to 1000 |  |
| O=C1CCCCCCCCC(=O)NCc2cccc(c2)CNc2nc(nc(OCC(F)(F)F)n2)Nc2ccc(cc2)CN1 [Example 0065] | 100 to 1000 |  |
| O=C1NCc2ccc(cc2)CNc2nc(nc(OCC(F)(F)F)n2)Nc2ccc(cc2)CNC(=O)OCCOCCOCCO1 [Example 0067] | 100 to 1000 |  |
| O=C1NCc2ccc(cc2)Nc2nc(nc(OCC(F)(F)F)n2)NCc2cccc(c2)CNC(=O)OCCOCCOCCO1 [Example 0068] | 100 to 1000 |  |
| O=C1COCC(=O)NCc2ccc(cc2)Nc2nc(nc(OCC(F)(F)F)n2)NCc2ccc(cc2)CN1 [Example 0069] | 0.1 to 100 | EC50 [4]: 78.8 nM |
| O=C1COCC(=O)NCc2cccc(c2)CNc2nc(nc(OCC(F)(F)F)n2)Nc2ccc(cc2)CN1 [Example 0070] | 0.1 to 100 |  |
| CC1(C)C(=O)NCc2ccc(cc2)CNc2nc(nc(OCC(F)(F)F)n2)Nc2ccc(cc2)CNC1=O [Example 0071] | 100 to 1000 |  |
| CC1(C)C(=O)NCc2ccc(cc2)Nc2nc(nc(OCC(F)(F)F)n2)NCc2cccc(c2)CNC1=O [Example 0072] | 0.1 to 100 |  |
| O=C1NCCCCCNc2cccc(c2)C2(CC2)Nc2nc(nc(OCC(F)(F)F)n2)Nc2ccc1cc2 [Example 3001] | 0.1 to 100 |  |
| O=C1CNC(=O)c2ccc(cc2)Nc2nc(nc(OCC(F)(F)F)n2)NCc2ccc(cc2)NC(=O)CN1 [Example 3002] | 100 to 1000 |  |
| O=C1CNC(=O)CNC(=O)c2ccc(cc2)Nc2nc(nc(OCC(F)(F)F)n2)NCc2ccc(cc2)NC(=O)CN1 [Example 3003] | 100 to 1000 |  |
| O=C1NS(=O)(=O)C/C=C/CCCOc2ccc(cc2)CNc2nc(nc(OCC(F)(F)F)n2)Nc2ccc1cc2 [Example 3005] | 1000 to 5000 |  |
| O=C1CNC(=O)c2ccc(cc2)Nc2nc(nc(OCC(F)(F)F)n2)NCc2ccc(cc2)OCC=CCS(=O)(=O)N1 [Example 3007] | 100 to 1000 | EC50 [4]: 557 nM |
| O=C1CCCNC(=O)c2ccc(cc2)Nc2nc(nc(OCC(F)(F)F)n2)NCc2ccc(cc2)OCC=CCS(=O)(=O)N1 [Example 3010] | 0.1 to 100 | EC50 [4]: 20.3 nM |

| SMILES | EC50 [3] [nM] | other results |
| --- | --- | --- |
| O=C1CCCCNC(=O)c2ccc(cc2)Nc2nc(nc(OCC(F)(F)F)n2)NCc2ccc(cc2)OC/C=C/S(=O)(=O)N1 [Example 3012] | 100 to 1000 | EC50 [4]: 275 nM |
| O=C1NCCCCNCCOc2ccc(cc2)CNC2=N/C(=N\c3ccc1cc3)N=C(OCC(F)(F)F)N2 [Example 4001, (2E)-5-(2,2,2-trifluoroethoxy)-14-oxa-2,4,6,8,17,22,31-heptaazatetracyclo[22.2.2.2∼10,13∼.1∼3,7∼]hentriaconta-1(26),2,4,7(31),10,12,24,27,29-nonaen-23-one] | 0.1 to 100 |  |
| CC(=O)N1CCCCNC(=O)c2ccc(cc2)Nc2nc(nc(OCC(F)(F)F)n2)NCc2ccc(cc2)OCC1 [Example 4002] | 100 to 1000 | EC50 [4]: 105 nM |
| CCC(=O)N1CCCCNC(=O)c2ccc(cc2)Nc2nc(nc(OCC(F)(F)F)n2)NCc2ccc(cc2)OCC1 [Example 4003] | 0.1 to 100 |  |
| CC(C)C(=O)N1CCCCNC(=O)c2ccc(cc2)Nc2nc(nc(OCC(F)(F)F)n2)NCc2ccc(cc2)OCC1 [Example 4004] | 0.1 to 100 |  |
| CC(C)(C)C(=O)N1CCCCNC(=O)c2ccc(cc2)Nc2nc(nc(OCC(F)(F)F)n2)NCc2ccc(cc2)OCC1 [Example 4005] | 0.1 to 100 |  |
| CNC(=O)N1CCCCNC(=O)c2ccc(cc2)Nc2nc(nc(OCC(F)(F)F)n2)NCc2ccc(cc2)OCC1 [Example 4006] | 0.1 to 100 |  |
| CCNC(=O)N1CCCCNC(=O)c2ccc(cc2)Nc2nc(nc(OCC(F)(F)F)n2)NCc2ccc(cc2)OCC1 [Example 4007] | 0.1 to 100 |  |
| CC(C)NC(=O)N1CCCCNC(=O)c2ccc(cc2)Nc2nc(nc(OCC(F)(F)F)n2)NCc2ccc(cc2)OCC1 [Example 4008] | 0.1 to 100 |  |
| CC(C)(C)NC(=O)N1CCCCNC(=O)c2ccc(cc2)Nc2nc(nc(OCC(F)(F)F)n2)NCc2ccc(cc2)OCC1 [Example 4009] | 0.1 to 100 | EC50 [4]: 8.47 nM |
| COC(=O)N1CCCCNC(=O)c2ccc(cc2)Nc2nc(nc(OCC(F)(F)F)n2)NCc2ccc(cc2)OCC1 [Example 4013] | 0.1 to 100 |  |
| CCOC(=O)N1CCCCNC(=O)c2ccc(cc2)Nc2nc(nc(OCC(F)(F)F)n2)NCc2ccc(cc2)OCC1 [Example 4014] | 0.1 to 100 |  |
| CC(C)OC(=O)N1CCCCNC(=O)c2ccc(cc2)Nc2nc(nc(OCC(F)(F)F)n2)NCc2ccc(cc2)OCC1 [Example 4015] | 0.1 to 100 |  |
| CC(C)(C)OC(=O)N1CCCCNC(=O)c2ccc(cc2)Nc2nc(nc(OCC(F)(F)F)n2)NCc2ccc(cc2)OCC1 [Example 4016] | 0.1 to 100 |  |
| O=C1NCCCNCCCCOc2ccc(cc2)CNc2nc(nc(OCC(F)(F)F)n2)Nc2ccc1cc2 [Example 4017] | 0.1 to 100 |  |
| CC(=O)N1CCCCOc2ccc(cc2)CNc2nc(nc(OCC(F)(F)F)n2)Nc2ccc(cc2)C(=O)NCCC1 [Example 4018] | 0.1 to 100 |  |
| CCC(=O)N1CCCCOc2ccc(cc2)CNc2nc(nc(OCC(F)(F)F)n2)Nc2ccc(cc2)C(=O)NCCC1 [Example 4019] | 0.1 to 100 |  |
| CC(C)C(=O)N1CCCCOc2ccc(cc2)CNc2nc(nc(OCC(F)(F)F)n2)Nc2ccc(cc2)C(=O)NCCC1 [Example 4020] | 0.1 to 100 |  |
| COC(=O)N1CCCCOc2ccc(cc2)CNc2nc(nc(OCC(F)(F)F)n2)Nc2ccc(cc2)C(=O)NCCC1 [Example 4023] | 0.1 to 100 |  |
| CCOC(=O)N1CCCCOc2ccc(cc2)CNc2nc(nc(OCC(F)(F)F)n2)Nc2ccc(cc2)C(=O)NCCC1 [Example 4024] | 0.1 to 100 |  |

Source: patent publication EP2697230B1, “COMPOUNDS FOR THE TREATMENT OF HEPATITIS C” (priority 2011, dated 2012)
